Test system: 883617-216-R-J1-PDC complex spheroid viability
Experiment: Anticancer human tumor 883617-216-R-J1-PDC patient-derived bladder carcinoma cell line growth inhibition [POLQ]
Conditions: for IC50: curve of first compound; for viability, T/C: stronger effect = lower value
Method: Multicellular complex tumor spheroid response to Polymerase (POL) inhibitors (novobiocin, ART-558, RP6685) in combination with a variety of drugs and investigational agents in selected tumor cell lines
The POL inhibitors (novobiocin, ART-558, and RP6685) were evaluated both individually and in combination with standard of care and investigational anticancer small molecules within a complex spheroid model of solid tumors. . Complex spheroids include a stromal component modeled by human endothelial cells (HUVEC) and fibroblasts modeled by human mesenchymal stem cells (MSCs). The concentration ranges selected for each drug and investigational agent were based upon clinically achievable concentrations if the clinical Cmax of the agent was known.
Compounds. The drugs and investigational agents: novobiocin (NSC847541), ART-558 (NSC835418), RP-6685 (NSC848927), peposertib (NSC802822), ceralasertib (NSC780249), elimusertib (NSC800525), camonsertib (NSC841442), AZD-1390 (NSC803789), olaparib (NSC753686), talazoparib (NSC767125), rucaparib (NSC756644), sotorasib (NSC818433), MRTX-1133 (NSC836407), SN-38 (NSC673596), topotecan (NSC609699), epotoside (NSC141540), doxorubicin (NSC123127), gemcitabine (NSC613327), 5-fluorouracil (NSC19893), paclitaxel (NSC125973), vemurafenib (NSC761431), MSA-2 (NSC828583), SN-011 (NSC837082), adavosertib (NSC754352), prexasertib (NSC758257), carboplatin (NSC241240) and oxaliplatin (NSC266046), were obtained from the National Cancer Institute (NCI) Developmental Therapeutics Program Chemical Repository (21). The FDA-approved anticancer drug set is available from the Developmental Therapeutics Program at https://dtp.cancer.gov/organization/dscb/obtaining/. […] The stock solutions were prepared in dimethyl sulfoxide (DMSO, Sigma-Aldrich, St. Louis, MO, cat. D2650), except for the platinum compounds which were prepared in saline (Quality Biological, Gaithersburg, MD, cat. 114-055-101), at 800-fold the tested concentration and stored at -70 degrees C prior to their use. All drugs and investigational agents were tested over a range starting from a high concentration at or near the clinical Cmax and decreasing in half-log increments. If the clinical Cmax for an agent had not been determined, the highest concentration tested was 10 microM, except for SN-38, which was tested at a high concentration of 1 microM.
Cell Culture. All cells were maintained in an incubator at 37 degrees C and 5% CO2 with 95% humidity. The PDC lines were cultured according to standard operating procedures established by the NCI PDMR (https://pdmr.cancer.gov). Table 3 of the manuscript, lists the cell lines along with the number of the three cell types plated to form the mct-spheroids and media for tumor cell growth. After thawing, all PDC lines, except 997537-175-T-J1-PDC and 415267-285-R-J2-PDC, were cultured in Matrigel-coated flasks prepared with a working solution of 1X Ham's F-12 nutrient mix, without supplementation (Thermo Fisher Scientific, cat. 11765054), 100 U/mL penicillin-streptomycin (Thermo Fisher Scientific, cat. 15140122), and 2.5% Matrigel (Corning Inc., Corning, NY, cat. 354248) for the first three passages. The two PDC lines 997537-175-T-J1-PDC and 415267-285-R-J2-PDC were cultured on uncoated flasks. The 857933-349-R-J2-PDC line was cultured in 6C/Colon 1B media containing advanced DMEM/F-12 (Thermo Fisher Scientific, cat. 12634028), 10 mM HEPES (Thermo Fisher Scientific, cat. 15630080), 1X GlutaMAX supplement (Thermo Fisher Scientific, cat. 35050061), 0.1 mg/mL primocin (InvivoGen, San Diego, CA, cat. ant-pm-2), 10% defined fetal bovine serum, heat inactivated (HyClone Laboratories Inc., Logan, UT, cat. SH30070.03HI), 50% L-WRN conditioned media (ATCC, cat. CRL-3276), 1.25 mM N-Acetyl-L-cysteine (Sigma-Aldrich, cat. A9165), 10 mM nicotinamide (Sigma-Aldrich, cat. N0636), 1X B-27 supplement (Thermo Fisher Scientific, cat. 17504044), 1X N-2 supplement (Thermo Fisher Scientific, cat. […]
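Further: spheroids exposed to compounds for seven days before readout.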
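Wherever viability, T/C is given: 100% = DMSO vehicle control viability.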

With `CC1COCCN1c1cc(C2(S(C)(=N)=O)CC2)nc(-c2ccnc3[nH]ccc23)n1` (configuration not stated) + COC1C(OC(N)=O)C(O)C(Oc2ccc3c(O)c(NC(=O)c4ccc(O)c(CC=C(C)C)c4)c(=O)oc3c2C)OC1(C)C the IC50 (second compound 0.0316 µM) was 2630 nM, the IC50 (second compound 0.1 µM) was 2110 nM and the IC50 (second compound 0.316 µM) was 2530 nM. The IC50 (second compound 1 µM) was 3630 nM, the IC50 (second compound 3.16 µM) was 1830 nM and the IC50 (second compound 10 µM) was 2950 nM. For the same molecule, the viability, T/C (second compound 0.0316 µM, first compound 0.0316 µM) was 89%, the viability, T/C (second compound 0.0316 µM, first compound 0.1 µM) was 101% and the viability, T/C (second compound 0.0316 µM, first compound 0.316 µM) was 84.5%. It also gave a viability, T/C (second compound 0.0316 µM, first compound 1 µM) of 83.5%, a viability, T/C (second compound 0.0316 µM, first compound 3.16 µM) of 43.5% and a viability, T/C (second compound 0.0316 µM, first compound 10 µM) of 31.2%. For the same molecule, the viability, T/C (second compound 0.1 µM, first compound 0.0316 µM) was 91.1%, the viability, T/C (second compound 0.1 µM, first compound 0.1 µM) was 91.5% and the viability, T/C (second compound 0.1 µM, first compound 0.316 µM) was 87.3%. For the same molecule, the viability, T/C (second compound 0.1 µM, first compound 1 µM) was 69.1%, the viability, T/C (second compound 0.1 µM, first compound 3.16 µM) was 39.1% and the viability, T/C (second compound 0.1 µM, first compound 10 µM) was 37.1%. It also gave a viability, T/C (second compound 0.316 µM, first compound 0.0316 µM) of 99.4%, a viability, T/C (second compound 0.316 µM, first compound 0.1 µM) of 89.6% and a viability, T/C (second compound 0.316 µM, first compound 0.316 µM) of 82.7%. It also gave a viability, T/C (second compound 0.316 µM, first compound 1 µM) of 67.8%, a viability, T/C (second compound 0.316 µM, first compound 3.16 µM) of 42.7% and a viability, T/C (second compound 0.316 µM, first compound 10 µM) of 38.7%. For the same molecule, the viability, T/C (second compound 1 µM, first compound 0.0316 µM) was 102%, the viability, T/C (second compound 1 µM, first compound 0.1 µM) was 84.8% and the viability, T/C (second compound 1 µM, first compound 0.316 µM) was 91.2%. It also gave a viability, T/C (second compound 1 µM, first compound 1 µM) of 70.8%, a viability, T/C (second compound 1 µM, first compound 3.16 µM) of 51.9% and a viability, T/C (second compound 1 µM, first compound 10 µM) of 31.3%. It also gave a viability, T/C (second compound 3.16 µM, first compound 0.0316 µM) of 88.3%, a viability, T/C (second compound 3.16 µM, first compound 0.1 µM) of 97.3% and a viability, T/C (second compound 3.16 µM, first compound 0.316 µM) of 97.1%. For the same molecule, the viability, T/C (second compound 3.16 µM, first compound 1 µM) was 61.8%, the viability, T/C (second compound 3.16 µM, first compound 3.16 µM) was 45.7% and the viability, T/C (second compound 3.16 µM, first compound 10 µM) was 32.6%. For the same molecule, the viability, T/C (second compound 10 µM, first compound 0.0316 µM) was 85.1%, the viability, T/C (second compound 10 µM, first compound 0.1 µM) was 82.4% and the viability, T/C (second compound 10 µM, first compound 0.316 µM) was 89.9%. The viability, T/C (second compound 10 µM, first compound 1 µM) was 65%, the viability, T/C (second compound 10 µM, first compound 3.16 µM) was 52.5% and the viability, T/C (second compound 10 µM, first compound 10 µM) was 40.5%.
